pIC50: −log10 of the molar value.
molecular target: full-length human recombinant BTK (Homo sapiens (Human), UniProt Q06187); assay: Inhibition of Btk enzymatic activity (biochemical enzyme assay, Caliper); settings: 30° C., 60 minutes
Protocol: The inhibitory activity of the present compounds against Btk was assessed in a biochemical enzyme assay. Assay plates in 384 well format were prepared with 8-point serial dilutions for the test compounds on a Thermo CatX workstation equipped with a Innovadyne Nanodrop Express. The assay plates were prepared by addition of 50 nl per well of compound solution in 90% DMSO. The kinase reactions were started by stepwise addition of 4.5 μl per well of peptide/ATP-solution (4 μM FITC-Ahx-[…]-NH2, 164 μM ATP) in kinase buffer (50 mM HEPES, pH 7.5, 1 mM DTT, 0.02% Tween20, 0.02% BSA, 0.6% DMSO, 10 mM beta-glycerophosphate, and 10 μM sodium orthovanadate, 18 mM MgCl2, 1 mM MnCl2) and 4.5 μl per well of enzyme solution (6.4 nM full-length human recombinant BTK) in kinase buffer. Kinase reactions were incubated at 30° C. for 60 minutes and subsequently terminated by addition of 16 μl per well of stop solution (100 mM HEPES pH 7.5, 5% DMSO, 0.1% Caliper coating reagent, 10 mM EDTA, and 0.015% Brij35). Kinase reactions were analyzed on a Caliper LC3000 workstation by separating phosphorylated and unphosphorylated peptides and kinase activities were calculated from the amounts of newly formed phospho-peptide. Inhibition data were calculated by comparison to control reactions without enzyme (100% inhibition) and without inhibitors (0% inhibition). The concentration of inhibitor required for 50% inhibition (IC50) was calculated from the inhibition in response to inhibitor concentrations.

Sequence of full-length human recombinant BTK (Q06187 whole entry): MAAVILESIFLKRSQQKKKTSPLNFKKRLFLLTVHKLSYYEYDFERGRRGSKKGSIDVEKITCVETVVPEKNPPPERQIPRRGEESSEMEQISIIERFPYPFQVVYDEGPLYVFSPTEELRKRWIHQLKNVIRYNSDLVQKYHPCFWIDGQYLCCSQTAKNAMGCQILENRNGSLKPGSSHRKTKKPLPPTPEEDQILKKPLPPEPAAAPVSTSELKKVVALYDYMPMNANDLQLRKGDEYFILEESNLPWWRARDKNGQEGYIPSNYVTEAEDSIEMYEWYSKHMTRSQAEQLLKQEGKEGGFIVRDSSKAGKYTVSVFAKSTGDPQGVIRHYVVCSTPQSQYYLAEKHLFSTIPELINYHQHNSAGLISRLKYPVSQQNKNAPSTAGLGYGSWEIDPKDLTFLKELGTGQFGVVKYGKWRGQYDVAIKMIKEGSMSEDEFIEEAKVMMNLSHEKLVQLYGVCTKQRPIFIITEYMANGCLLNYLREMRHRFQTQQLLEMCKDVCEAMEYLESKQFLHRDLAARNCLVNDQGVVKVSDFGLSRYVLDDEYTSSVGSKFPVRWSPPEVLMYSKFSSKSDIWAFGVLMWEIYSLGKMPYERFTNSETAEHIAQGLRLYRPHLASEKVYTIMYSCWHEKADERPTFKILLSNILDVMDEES

pIC50	SMILES
7.59	CN(C)C(=O)N1CC=C(c2cc3c(-c4cccc(NC(=O)c5ccc(C(C)(C)C)cc5)c4CO)ncnc3[nH]2)CC1 [Example 37, 4-{4-[3-(4-tert-Butyl-benzoylamino)-2-hydroxymethyl-phenyl]-7H-pyrrolo[2,3-d]pyrimidin-6-yl}-3,6-dihydro-2H-pyridine-1-carboxylic acid dimethylamide]
7.64	Cc1c(NC(=O)c2ccc(C(C)(C)C)cc2)cc(F)cc1-c1ncnc2[nH]c(C3=CCN(C(=O)N(C)C)CC3)cc12 [Example 41, 4-{4-[3-(4-tert-Butyl-benzoylamino)-5-fluoro-2-methyl-phenyl]-7H-pyrrolo[2,3-d]pyrimidin-6-yl}-3,6-dihydro-2H-pyridine-1-carboxylic acid dimethylamide]
8.40	Cc1c(NC(=O)c2ccc(S(F)(F)(F)(F)F)cc2)cc(F)cc1-c1ncnc2[nH]c(C3=CCN(C(=O)CO)CC3)cc12 [Example 36, N-(5-Fluoro-3-{6-[1-(2-hydroxy-acetyl)-1,2,3,6-tetrahydro-pyridin-4-yl]-7H-pyrrolo[2,3-d]pyrimidin-4-yl}-2-methyl-phenyl)-4-(pentafluoro-sulfanyl)-benzamide]
8.30	Cc1c(NC(=O)c2ccc(C3(C(F)(F)F)CC3)cc2)cc(F)cc1-c1ncnc2[nH]c(C3=CCN(C(=O)N(C)C)CC3)cc12 [Example 9, 4-(4-{5-Fluoro-2-methyl-3-[4-(1-trifluoromethyl-cyclopropyl)-benzoylamino]-phenyl}-7H-pyrrolo[2,3-d]pyrimidin-6-yl)-3,6-dihydro-2H-pyridine-1-carboxylic acid dimethylamide]
8.22	Cc1c(NC(=O)c2ccc(C3CC3)cc2)cc(F)cc1-c1ncnc2[nH]c(C3=CCN(C(=O)N4CCCC4)CC3)cc12 [Example 30, 4-Cyclopropyl-N-(5-fluoro-2-methyl-3-{6-[1-(pyrrolidine-1-carbonyl)-1,2,3,6-tetrahydro-pyridin-4-yl]-7H-pyrrolo[2,3-d]pyrimidin-4-yl}-phenyl)-benzamide]
7.85	CC(=O)OCC(=O)N1CC=C(c2cc3c(-c4cc(F)cc(NC(=O)c5ccc(S(F)(F)(F)(F)F)cc5)c4C)ncnc3[nH]2)CC1 [Example 35, Acetic acid 2-[4-(4-{5-fluoro-2-methyl-3-[4-(pentafluoro-sulfanyl)-benzoylamino]-phenyl}-7H-pyrrolo[2,3-d]pyrimidin-6-yl)-3,6-dihydro-2H-pyridin-1-yl]-2-oxo-ethyl ester]
6.85	Cc1c(NC(=O)c2ccc(C(C)(C)C)cc2)cc(F)cc1-c1ncnc2[nH]c(C3=CCN(S(=O)(=O)N(C)C)CC3)cc12 [Example 43, 4-tert-Butyl-N-{3-[6 (1 dimethylsulfamoyl-1,2,3,6-tetrahydro-pyridin-4-yl)-7H-pyrrolo[2,3-d]pyrimidin-4-yl]-5-fluoro-2-methyl-phenyl}-benzamide]
7.77	Cc1c(NC(=O)c2ccc(N(C)C)cc2)cc(F)cc1-c1ncnc2[nH]c(C3=CCN(C(=O)N(C)C)CC3)cc12 [Example 15, 4-{4-[3-(4-Dimethylamino-benzoylamino)-5-fluoro-2-methyl-phenyl]-7H-pyrrolo[2,3-d]pyrimidin-6-yl}-3,6-dihydro-2H-pyridine-1-carboxylic acid dimethylamide]
7.52	Cc1c(NC(=O)c2ccc(C(C)(C)C)cc2)cc(F)cc1-c1ncnc2[nH]c(C3=CCN(S(C)(=O)=O)CC3)cc12 [Example 42, 4-tert-Butyl-N-{5-fluoro-3-[6-(1-methanesulfonyl-1,2,3,6-tetrahydro-pyridin-4-yl)-7H-pyrrolo[2,3-d]pyrimidin-4-yl]-2-methyl-phenyl}-benzamide]
8.22	CN(C)C(=O)N1CC=C(c2cc3c(-c4ccc(F)c(NC(=O)c5ccc(C(C)(C)CO)cc5)c4)ncnc3[nH]2)CC1 [Example 21, 4-(4-{4-Fluoro-3-[4-(2-hydroxy-1,1-dimethyl-ethyl)-benzoylamino]-phenyl}-7H-pyrrolo[2,3-d]pyrimidin-6-yl)-3,6-dihydro-2H-pyridine-1-carboxylic acid dimethylamide]
8.52	Cc1c(NC(=O)N2Cc3ccc(F)cc3C2)cc(F)cc1-c1ncnc2[nH]c(C3=CCN(C(=O)N(C)C)CC3)cc12 [Example 59, 5-Fluoro-1,3-dihydro-isoindole-2-carboxylic acid {3-[6-(1-dimethylcarbamoyl-1,2,3,6-tetrahydro-pyridin-4-yl)-7H-pyrrolo[2,3-d]pyrimidin-4-yl]-5-fluoro-2-methyl-phenyl}-amide]
7.80	Cc1c(NC(=O)c2ccc3ccn(C)c3n2)cc(F)cc1-c1ncnc2[nH]c(C3=CCN(C(=O)N(C)C)CC3)cc12 [Example 14, 1-Methyl-1H-pyrrolo[2,3-b]pyridine-6-carboxylic acid {3-[6-(1-dimethyl-carbamoyl-1,2,3,6-tetrahydro-pyridin-4-yl)-7H-pyrrolo[2,3-d]pyrimidin-4-yl]-5-fluoro-2-methyl-phenyl}-amide]

Second part, the compound before the results:

SMILES	pIC50
CC(C)(O)c1ccc(C(=O)Nc2cccc(-c3ncnc4[nH]c(C5=CCOCC5)cc34)c2CO)c(F)c1 [Example 23, N-{3-[6-(3,6-Dihydro-2H-pyran-4-yl)-7H-pyrrolo[2,3-d]pyrimidin-4-yl]-2-hydroxymethyl-phenyl}-2-fluoro-4-(1-hydroxy-1-methyl-ethyl)-benzamide]	7.92
Cc1c(-c2ncnc3[nH]c(C4=CCN(C(=O)N(C)C)CC4)cc23)ccc(F)c1NC(=O)N1CC(OC(C)(C)C)C1 [Example 63, 4-(4-{3-[(3-tert-Butoxy-azetidine-1-carbonyl)-amino]-4-fluoro-2-methyl-phenyl}-7H-pyrrolo[2,3-d]pyrimidin-6-yl)-3,6-dihydro-2H-pyridine-1-carboxylic acid dimethylamide]	8.70
CN(C)C1CC=C(c2cc3c(-c4cccc(NC(=O)c5ccc(C(C)(C)C)cc5)c4CO)ncnc3[nH]2)CC1 (stereo not drawn) [Example 56, 4-tert-Butyl-N-{3-[6 (4 dimethylamino-cyclohex-1-enyl)-7H-pyrrolo[2,3-d]pyrimidin-4-yl]-2-hydroxymethyl-phenyl}-benzamide]	8.70
Cc1c(NC(=O)c2ccc(C(C)(C)C)cc2)cccc1-c1ncnc2[nH]c(C3=CCSCC3)cc12 [Example 51, 4-tert-Butyl-N-{3-[6-(3,6-dihydro-2H-thiopyran-4-yl)-7H-pyrrolo[2,3-d]pyrimidin-4-yl]-2-methyl-phenyl}-benzamide]	7.33
Cc1c(NC(=O)c2ccc(C(C)(C)C)cc2)cc(F)cc1-c1ncnc2[nH]c(C3=CCOCC3)cc12 [Example 49, 4-tert-Butyl-N-{3-[6-(3,6-dihydro-2H-pyran-4-yl)-7H-pyrrolo[2,3-d]pyrimidin-4-yl]-5-fluoro-2-methyl-phenyl}-benzamide]	7.00
CC(C)(C)c1ccc(C(=O)Nc2cccc(-c3ncnc4[nH]c(C5=CCC6(CC5)OCCO6)cc34)c2CO)cc1 [Example 54, 4-tert-Butyl-N-{3-[6-(1,4-dioxa-spiro[4.5]dec-7-en-8-yl)-7H-pyrrolo[2,3-d]pyrimidin-4-yl]-2-hydroxymethyl-phenyl}-benzamide]	7.62
Cc1c(NC(=O)c2ccc(C(C)(C)C)cc2)cccc1-c1ncnc2[nH]c(C3=CCC(N(C)C)CC3)cc12 (stereo not drawn) [Example 67, 4-tert-Butyl-N-{3-[6 (4 dimethylamino-cyclohex-1-enyl)-7H-pyrrolo[2,3-d]pyrimidin-4-yl]-2-methyl-phenyl}-benzamide]	8.10
Cc1c(NC(=O)c2ccc(C(C)(C)C)cc2)cc(F)cc1-c1ncnc2[nH]c(C3=CCS(=O)(=O)CC3)cc12 [Example 26, 4-tert-Butyl-N-{3-[6-(3,6-dihydro-1,1-dioxido-2H-thiopyran-4-yl)-7H-pyrrolo[2,3-d]pyrimidin-4-yl]-5-fluoro-2-methyl-phenyl}-benzamide]	7.46
Cc1c(NC(=O)c2ccc(C(C)(C)C)cc2)cccc1-c1ncnc2[nH]c(C3=CCN(S(C)(=O)=O)CC3)cc12 [Example 44, 4-tert-Butyl-N-{3-[6-(1 methanesulfonyl-1,2,3,6-tetrahydro-pyridin-4-yl)-7H-pyrrolo[2,3-d]pyrimidin-4-yl]-2-methyl-phenyl}-benzamide]	7.77
Cc1c(NC(=O)N2CC(OC(C(F)(F)F)C(F)(F)F)C2)cc(F)cc1-c1ncnc2[nH]c(C3=CCN(C(=O)N(C)C)CC3)cc12 [Example 60, 4-[4-(5-Fluoro-2-methyl-3-{[3-(2,2,2-trifluoro-1-trifluoromethyl-ethoxy)-azetidine-1-carbonyl]-amino}-phenyl)-7H-pyrrolo[2,3-d]pyrimidin-6-yl]-3,6-dihydro-2H-pyridine-1-carboxylic acid dimethylamide]	8.10
Cc1c(NC(=O)c2ccc(C(C)(C)C)cc2)cc(F)cc1-c1ncnc2[nH]c(C3=CCC(O)CC3)cc12 (stereo not drawn) [Example 28, 4-tert-Butyl-N-{5-fluoro-3-[6-(4-hydroxy-cyclohex-1-enyl)-7H-pyrrolo[2,3-d]pyrimidin-4-yl]-2-methyl-phenyl}-benzamide]	7.34
Cc1c(NC(=O)c2ccc(C(C)(C)C)cc2)cccc1-c1ncnc2[nH]c(C3=CCOCC3)cc12 [Example 64, 4-tert-Butyl-N-{3-[6-(3,6-dihydro-2H-pyran-4-yl)-7H-pyrrolo[2,3-d]pyrimidin-4-yl]-2-methyl-phenyl}-benzamide]	7.82

Source: patent US9233111B2, “Pyrrolo pyrimidine derivatives” (NOVARTIS AG, priority 2011, dated 2016)
